Where two headings read alike, the source gives them in different places.
What was measured:
human PXR [1] = target: T1, human PXR (Homo sapiens, UniProt O75469); conditions: for hPXR Efficacy: human
T1 sequence (O75469 1-434): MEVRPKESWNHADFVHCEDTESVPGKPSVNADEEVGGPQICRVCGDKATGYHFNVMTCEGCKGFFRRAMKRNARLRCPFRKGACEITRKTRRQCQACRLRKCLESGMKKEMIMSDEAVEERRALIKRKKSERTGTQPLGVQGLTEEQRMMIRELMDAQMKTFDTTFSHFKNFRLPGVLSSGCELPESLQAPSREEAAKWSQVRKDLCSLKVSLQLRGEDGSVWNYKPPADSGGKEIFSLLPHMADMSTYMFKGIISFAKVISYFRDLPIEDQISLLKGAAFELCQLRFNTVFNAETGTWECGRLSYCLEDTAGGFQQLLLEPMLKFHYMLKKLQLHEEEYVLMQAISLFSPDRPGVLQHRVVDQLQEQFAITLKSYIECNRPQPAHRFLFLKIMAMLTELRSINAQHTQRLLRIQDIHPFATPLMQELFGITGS

zebrafish PXR = target: T2, zebrafish PXR (Danio rerio, UniProt A5WYG8); conditions: for zfPXR Efficacy: relative to 20 μM 5α-androstan-3α-ol, assigned an efficacy of 1.0
T2 sequence (A5WYG8 144-430): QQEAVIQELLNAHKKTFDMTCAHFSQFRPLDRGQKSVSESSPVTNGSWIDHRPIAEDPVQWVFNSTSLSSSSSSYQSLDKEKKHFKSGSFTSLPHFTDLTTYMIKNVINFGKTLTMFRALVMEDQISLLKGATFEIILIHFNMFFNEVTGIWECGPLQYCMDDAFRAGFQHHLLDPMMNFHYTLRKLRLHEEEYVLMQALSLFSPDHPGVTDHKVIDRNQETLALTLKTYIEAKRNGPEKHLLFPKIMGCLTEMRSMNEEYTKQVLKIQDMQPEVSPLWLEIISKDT

human PXR [2] = target: T1, human PXR; experiment: PXR activation luciferase reporter assay, human PXR in HepG2-NTCP cells
[3] = -log(EC50), EC50 in molar units, activation of zebrafish PXR
[4] = Human PXR EC50 (concentration class, Figure 2A), class read from box colour against the key of Figure 2
[5] = hPXR Activity, -log(EC50), EC50 in molar units, activation of human PXR
[6] = -log(EC50), EC50 in molar units, activation of human PXR

Compound | hPXR Activity (human PXR [1]) | zfPXR Activity (zebrafish PXR; [3]) | Toxicity (HepG2 cells) | other results
CC(=O)[C@@]1(O)CC[C@H]2[C@@H]3CC=C4C[C@@H](O)CC[C@]4(C)[C@H]3CC[C@@]21C [PR11, 5-Pregnen-3β,17-diol-20-one] | 4.47 | None | None | EC50 (human PXR [1]): 11 to 50 µM
COc1c(C)c2c(c(O)c1C/C=C(\C)CCC(=O)O)C(=O)OC2 [MI21, Mycophenolic acid] | None | None | None | –
C#C[C@]1(O)CC[C@H]2[C@@H]3CCc4cc(O)ccc4[C@H]3CC[C@@]21C [ES11, 1,3,5(10)-Estratrien-17α-ethinyl-3,17β-diol] | – | None | – | hPXR Efficacy (human PXR [1]): 0.68; Toxicity (HepG2 cells; human, 24 hr): 200 µM
CCC1(c2ccccc2)C(=O)NC(=O)NC1=O [MI25, Phenobarbital] | – | – | None | hPXR Efficacy (human PXR [1]): 1.19
C[C@]12CC[C@@H](O)C[C@H]1CC[C@@H]1[C@@H]2C(=O)C[C@@]2(C)[C@H]1CC[C@]2(O)[C@@H](O)CO [PR18, 5β-Pregnan-3α,17,20α-21-tetrol-11-one] | 4.35 | 4.34 | 200 µM | zfPXR Efficacy (zebrafish PXR): 0.25
C[C@]12CC[C@H]3[C@@H](CCC4=CC(=O)CC[C@@]43C)[C@@H]1CC[C@@H]2O [AN8, 4-Androsten-17β-ol-3-one] | – | – | None | hPXR Efficacy (human PXR [1]): 0.22
C[C@]12CCC(=O)C[C@@H]1CC[C@@H]1[C@@H]2CC[C@]2(C)C(=O)CC[C@@H]12 [AN2, 5α-Androstan-3,17-dione] | – | – | None | hPXR Efficacy (human PXR [1]): 0.87
CC1=CC(=O)c2ccccc2C1=O [MI46, Vitamin K3] | – | – | – | hPXR Efficacy (human PXR [1]): ~0.15; zfPXR Activity (zebrafish PXR): None; Toxicity (HepG2 cells; human, 24 hr): 100 µM
CC(C)CCC[C@@H](C)[C@H]1CC[C@H]2C3=CC=C4C[C@@H](O)CC[C@]4(C)[C@H]3CC[C@]12C [MI28, Provitamin D3] | None | None | 10 µM | –
C[C@H](CC(=O)O)[C@H]1CC[C@H]2[C@@H]3[C@H](O)C[C@@H]4C[C@H](O)CC[C@]4(C)[C@H]3C[C@H](O)[C@]12C [BI27, 23-Norcholic acid] | 4.02 | None | None | –
C[C@]12CC[C@H]3[C@@H](CCC4=CC(=O)CC[C@@]43C)[C@@H]1CC[C@H]2O [AN15, 4-Androsten-17α-ol-3-one] | – | – | None | hPXR Efficacy (human PXR [1]): 0.9
C[C@]12CC[C@@H](O)C[C@H]1CC[C@@H]1[C@@H]2C(=O)C[C@@]2(C)[C@H]1CC[C@]2(O)C(=O)CO [PR19, 5β-Pregnan-3α,17,21-triol-11,20-dione] | 4.28 | 4.43 | None | zfPXR Efficacy (zebrafish PXR): 0.33
C[C@H](CCCOS(=O)(=O)O)[C@H]1CC[C@H]2[C@@H]3[C@H](O)C[C@H]4CC(=O)CC[C@]4(C)[C@H]3C[C@H](O)[C@]12C [BI32, 5α-Cholan-7α,12α-diol-3-one-24-sulfate] | None | None | None | –
C[C@@H]1C[C@H]2[C@@H]3CCC4=CC(=O)C=C[C@]4(C)[C@@]3(F)[C@@H](O)C[C@]2(C)[C@@]1(O)C(=O)CO [PR29, 1,4-Pregnadien-9α-fluoro-16α-methyl-11β,17,21-triol-3,20-dione] | – | – | None | EC50 (human PXR [2]; hPXR Activity): 40.7 µM; zfPXR Activity (zebrafish PXR): None
C[C@]12CC[C@@H](O)C[C@H]1CC[C@@H]1[C@@H]2[C@@H](O)C[C@@]2(C)[C@H]1CC[C@]2(O)[C@@H](O)CO [PR17, 5β-Pregnan-3α,11β,17,20α-21-pentol] | 4.33 | 3.95 | 200 µM | zfPXR Efficacy (zebrafish PXR): 0.98
C[C@]12CCC(=O)C=C1CC[C@@H]1[C@@H]2C(=O)C[C@@]2(C)[C@H]1CC[C@]2(O)C(=O)CO [PR6, 4-Pregnen-17,21-diol-3,11,20-trione] | – | – | – | EC50 (human PXR [2]; [4]): 51 to 200 µM; EC50 (human PXR [2]; [5]): 69.2 µM; Zebrafish PXR EC50 (concentration class, Figure 2B) (zebrafish PXR): Inactive; zfPXR Activity (zebrafish PXR): None; Toxicity (HepG2 cells; human, 24 hr): 200 µM
Nc1cccc(C(=O)O)c1 [MI2, 3-Aminobenzoic acid] | None | None | None | –

Compound | hPXR Activity (human PXR [1]) | zfPXR Activity (zebrafish PXR; [3]) | Toxicity (HepG2 cells) | other results
CC(=O)O[C@H]1C(=O)[C@@]2(C)[C@H]([C@H](OC(=O)c3ccccc3)[C@]3(O)C[C@H](OC(=O)[C@H](O)[C@@H](NC(=O)c4ccccc4)c4ccccc4)C(C)=C1C3(C)C)[C@]1(OC(C)=O)CO[C@@H]1C[C@@H]2O [MI24, Paclitaxel] | – | – | – | EC50 (human PXR [2]; [5]): 12 µM; zfPXR Activity (zebrafish PXR): None; Toxicity (HepG2 cells; human, 24 hr): 100 µM
C[C@]12CC[C@@H]3c4ccc(O)cc4CC[C@H]3[C@@H]1CC[C@@H]2O [ES1, 1,3,5(10)-Estratrien-3,17β-diol] | – | None | – | EC50 (human PXR [2]; [4]): 11 to 50 µM; EC50 (human PXR [2]; [5]): 15.8 µM; Toxicity (HepG2 cells; human, 24 hr): 200 µM
C[C@@H](O)[C@H]1CC[C@H]2[C@@H]3CC[C@@H]4C[C@H](O)CC[C@]4(C)[C@H]3CC[C@]12C [PR23, 5β-Pregnan-3α,20β-diol] | 5.42 | 5.95 | None | zfPXR Efficacy (zebrafish PXR): 0.25
4-Pregnen-20β-ol-3,20-dione-17α-sulfate [PR22] | 5.73 | None | None | –
O=C1NC(=O)C(c2ccccc2)(c2ccccc2)N1 [MI26, Phenytoin] | – | – | – | hPXR Efficacy (human PXR [1]): 0.52; zfPXR Activity (zebrafish PXR): None; Toxicity (HepG2 cells; human, 24 hr): 200 µM
CC1=C(/C=C/C(C)=C/C=C/C(C)=C/CO)C(C)(C)CCC1 [MI31, Retinol] | – | – | – | hPXR Efficacy (human PXR [1]): 0.20; zfPXR Activity (zebrafish PXR): None; Toxicity (HepG2 cells; human, 24 hr): 50 µM
C[C@]12CC[C@@H]3c4ccc(OS(=O)(=O)O)cc4CC[C@H]3[C@@H]1CCC2=O [ES8, 1,3,5(10)-Estratrien-17-one-3-sulfate] | 5.47 | None | None | –
C[C@]12C[C@H](O)[C@H]3[C@@H](CCC4=CC(=O)CC[C@@]43C)[C@@H]1CC[C@@H]2C(=O)CO [PR3, 4-Pregnen-11β,21-diol-3,20-dione] | – | – | None | EC50 (human PXR [2]; [4]): < 10 µM; EC50 (human PXR [2]; [5]): 10 µM; Zebrafish PXR EC50 (concentration class, Figure 2B) (zebrafish PXR): Inactive; zfPXR Activity (zebrafish PXR): None
C[C@H]([C@H](O)CCC(C)(C)O)[C@H]1CC[C@@]2(O)C3=CC(=O)[C@@H]4C[C@@H](O)[C@@H](O)C[C@]4(C)[C@H]3CC[C@]12C [MI13, Ecdysone] | – | None | None | hPXR Activity (human PXR [2]; [6]): None
CC(=O)[C@H]1CC[C@H]2[C@@H]3CC=C4C[C@@H](O)CC[C@]4(C)[C@H]3CC[C@]12C [PR12, 5-Pregnen-3β-diol-20-one] | – | 6.32 | None | hPXR Activity (human PXR [2]; [6]): 5.64; hPXR Efficacy (human PXR [2]; relative to 10 μM rifampicin, assigned an efficacy of 1.0): 1.26; zfPXR Efficacy (zebrafish PXR): 2.05
C[C@H](CCC(=O)O)[C@H]1CC[C@H]2[C@@H]3CC[C@@H]4C[C@H](OS(=O)(=O)O)CC[C@]4(C)[C@H]3CC[C@]12C [BI41, 5β-Cholanic acid-3α-sulfate] | – | 4.61 | None | hPXR Activity (human PXR [2]; [6]): 3.93
CC[C@H](C)C(=O)O[C@H]1CCC=C2C=C[C@H](C)[C@H](CC[C@@H]3C[C@@H](O)CC(=O)O3)[C@H]21 [MI20, Mevastatin] | – | None | – | EC50 (human PXR [2]; [5]): 5.89 µM; Toxicity (HepG2 cells; human, 24 hr): 15 µM
Cn1c(=O)c2c(ncn2C)n(C)c1=O [MI6, Caffeine] | None | – | – | –
CC1=C(C/C=C(\C)CCC[C@H](C)CCC[C@H](C)CCCC(C)C)C(=O)c2ccccc2C1=O [MI44, Vitamin K1] | – | None | – | EC50 (human PXR [2]; [5]): 10.2 µM; Toxicity (HepG2 cells; human, 24 hr): 100 µM
C[C@]12CCC(=O)C=C1CC[C@@H]1[C@@H]2[C@@H](O)C[C@]2(C=O)[C@@H](C(=O)CO)CC[C@@H]12 [PR5, 4-Pregnen-11β,21-diol-3,18,20-trione] | – | None | None | EC50 (human PXR [2]; [4]): 51 to 200 µM; EC50 (human PXR [2]; [5]): 55 µM
C[C@]12CC[C@@H](O[C@@H]3O[C@H](C(=O)O)[C@@H](O)[C@H](O)[C@H]3O)C[C@H]1CC[C@@H]1[C@@H]2CC[C@]2(C)C(=O)CC[C@@H]12 [AN18, 5β-Androstan-3α-glucosiduronate-17-one] | – | None | None | hPXR Activity (human PXR [2]; [6]): None
CC(C)CCC[C@@H](C)[C@H]1CC[C@H]2[C@@H]3CC=C4C[C@@H](O)CC[C@]4(C)[C@H]3CC[C@]12C [Cholesterol] | – | – | – | Human PXR EC50 (concentration class, Figure 2A) (human PXR [1]): Inactive

— article PMC2358886, “Evolution of pharmacologic specificity in the pregnane X receptor” (BMC Evolutionary Biology, 2008)
